Data: PubChem BioAssay (NCI)
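Cells were grown in 96-well plates and exposed to each compound for 48 hours at five concentrations; endpoints were interpolated linearly between bracketing concentrations, or set to the highest concentration if not reached. GI50 marks 50% less growth. TGI marks complete inhibition of growth.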

Key:
Test in all cases: NCI anticancer screen, dose series, 48 h
[1] = test system: HCT-15 colon
[2] = test system: UACC-257 melanoma
[3] = test system: NCI/ADR-RES ovarian
[4] = test system: SNB-75 CNS
[5] = test system: UO-31 renal
[6] = test system: SR leukemia
[7] = test system: NCI-H460 lung
[8] = test system: SN12C renal
[9] = test system: SK-MEL-5 melanoma
[10] = test system: RXF 393 renal
[11] = test system: SF-295 CNS
[12] = test system: MALME-3M melanoma
[13] = test system: A549 NSCLC
[14] = test system: OVCAR-5 ovarian
[15] = test system: MCF7 breast
[16] = test system: CAKI-1 renal
[17] = test system: NCI-H23 lung
[18] = test system: MDA-MB-435
[19] = test system: CCRF-CEM leukemia
[20] = test system: OVCAR-3 ovarian
[21] = test system: SK-OV-3 ovarian
[22] = test system: HOP-62 NSCLC
[23] = test system: UACC-62 melanoma
[24] = test system: HCT-116 colon
[25] = test system: T-47D breast
[26] = test system: MOLT-4 leukemia
[27] = test system: 786-0 renal
[28] = test system: SF-268 CNS
[29] = test system: OVCAR-4 ovarian
[30] = test system: KM12 colon
[31] = test system: NCI-H226 lung
[32] = test system: SK-MEL-28 melanoma
[33] = test system: SW-620 colon
[34] = test system: MDA-MB-231 breast
[35] = test system: SNB-19 CNS
[36] = test system: M14 melanoma
[37] = test system: U251 CNS
[38] = test system: ACHN renal
[39] = test system: SK-MEL-2 melanoma
[40] = test system: COLO 205 colon
[41] = test system: LOX IMVI melanoma
[42] = test system: HCC-2998 colon
[43] = test system: HL-60(TB) leukemia
[44] = test system: TK-10 renal
[45] = test system: K-562 leukemia
[46] = test system: DU-145 prostate
[47] = test system: PC-3 prostate
[48] = test system: HT29 colon
[49] = test system: HOP-92 NSCLC
[50] = test system: IGROV1 ovarian
[51] = test system: NCI-H522 lung
[52] = test system: OVCAR-8 ovarian
[53] = test system: HS 578T breast
[54] = test system: RPMI-8226 leukemia
[55] = test system: SF-539 CNS
[56] = test system: BT-549 breast
[57] = test system: EKVX NSCLC
[58] = test system: A498 renal

## CC(O)[C@H](NC(=O)N[C@@H](CC(N)=O)c1nc(N2CCNCC2)no1)C(=O)O (stereo partly specified)
[1]
  GI50: > 100 µM
  TGI: > 100 µM
[2]
  GI50: > 100 µM
  TGI: > 100 µM
[3]
  GI50: > 100 µM
  TGI: > 100 µM
[4]
  GI50: > 100 µM
  TGI: > 100 µM
[5]
  GI50: > 100 µM
  TGI: > 100 µM
[6]
  GI50: > 100 µM
  TGI: > 100 µM
[7]
  GI50: > 100 µM
  TGI: > 100 µM
[8]
  GI50: > 100 µM
  TGI: > 100 µM
[9]
  GI50: > 100 µM
  TGI: > 100 µM
[10]
  GI50: > 100 µM
  TGI: > 100 µM
[11]
  GI50: > 100 µM
  TGI: > 100 µM
[12]
  GI50: > 100 µM
  TGI: > 100 µM
[13]
  GI50: > 100 µM
  TGI: > 100 µM
[14]
  GI50: > 100 µM
  TGI: > 100 µM
[15]
  GI50: > 100 µM
  TGI: > 100 µM
[16]
  GI50: > 100 µM
  TGI: > 100 µM
[17]
  GI50: > 100 µM
  TGI: > 100 µM
[18]
  GI50: > 100 µM
  TGI: > 100 µM
[19]
  GI50: > 100 µM
  TGI: > 100 µM
[20]
  GI50: > 100 µM
  TGI: > 100 µM
[21]
  GI50: > 100 µM
  TGI: > 100 µM
[22]
  GI50: > 100 µM
  TGI: > 100 µM
[23]
  GI50: > 100 µM
  TGI: > 100 µM
[24]
  GI50: > 100 µM
  TGI: > 100 µM
[25]
  GI50: > 100 µM
  TGI: > 100 µM
[26]
  GI50: > 100 µM
  TGI: > 100 µM
[27]
  GI50: > 100 µM
  TGI: > 100 µM
[28]
  GI50: > 100 µM
  TGI: > 100 µM
[29]
  GI50: > 100 µM
  TGI: > 100 µM
[30]
  GI50: > 100 µM
  TGI: > 100 µM
[31]
  GI50: > 100 µM
  TGI: > 100 µM
[32]
  GI50: > 100 µM
  TGI: > 100 µM
[33]
  GI50: > 100 µM
  TGI: > 100 µM
[34]
  GI50: > 100 µM
  TGI: > 100 µM
[35]
  GI50: > 100 µM
  TGI: > 100 µM
[36]
  GI50: > 100 µM
  TGI: > 100 µM
[37]
  GI50: > 100 µM
  TGI: > 100 µM
[38]
  GI50: > 100 µM
  TGI: > 100 µM
[39]
  GI50: > 100 µM
  TGI: > 100 µM
[40]
  GI50: > 100 µM
  TGI: > 100 µM
[41]
  GI50: > 100 µM
  TGI: > 100 µM
[42]
  GI50: > 100 µM
  TGI: > 100 µM
[43]
  GI50: > 100 µM
  TGI: > 100 µM
[44]
  GI50: > 100 µM
  TGI: > 100 µM
[45]
  GI50: > 100 µM
  TGI: > 100 µM
[46]
  GI50: > 100 µM
  TGI: > 100 µM
[47]
  GI50: > 100 µM
  TGI: > 100 µM
[48]
  GI50: > 100 µM
  TGI: > 100 µM
[49]
  GI50: > 100 µM
  TGI: > 100 µM
[50]
  GI50: > 100 µM
  TGI: > 100 µM
[51]
  GI50: > 100 µM
  TGI: > 100 µM
[52]
  GI50: > 100 µM
  TGI: > 100 µM
[53]
  GI50: > 100 µM
  TGI: > 100 µM
[54]
  GI50: > 100 µM
  TGI: > 100 µM
[55]
  GI50: > 100 µM
  TGI: > 100 µM
[56]
  GI50: > 100 µM
  TGI: > 100 µM
[57]
  GI50: > 100 µM
  TGI: > 100 µM

## OCC(O)C(O)C(O)C(O)c1nnc2c(-c3ccccc3)nc3ccccc3n12 (stereo unspecified)
[1]
  GI50: 53.1 µM
  TGI: > 100 µM
[2]
  GI50: > 100 µM
  TGI: > 100 µM
[3]
  GI50: 69.2 µM
  TGI: > 100 µM
[4]
  GI50: > 100 µM
  TGI: > 100 µM
[5]
  GI50: > 100 µM
  TGI: > 100 µM
[7]
  GI50: > 100 µM
  TGI: > 100 µM
[8]
  GI50: > 100 µM
  TGI: > 100 µM
[9]
  GI50: 70.3 µM
  TGI: > 100 µM
[10]
  GI50: 56.8 µM
  TGI: > 100 µM
[11]
  GI50: > 100 µM
  TGI: > 100 µM
[12]
  GI50: 38.7 µM
  TGI: > 100 µM
[13]
  GI50: > 100 µM
  TGI: > 100 µM
[14]
  GI50: > 100 µM
  TGI: > 100 µM
[15]
  GI50: 43.5 µM
  TGI: > 100 µM
[16]
  GI50: > 100 µM
  TGI: > 100 µM
[17]
  GI50: > 100 µM
  TGI: > 100 µM
[18]
  GI50: > 100 µM
  TGI: > 100 µM
[19]
  GI50: > 100 µM
  TGI: > 100 µM
[20]
  GI50: > 100 µM
  TGI: > 100 µM
[21]
  GI50: > 100 µM
  TGI: > 100 µM
[22]
  GI50: > 100 µM
  TGI: > 100 µM
[23]
  GI50: > 100 µM
  TGI: > 100 µM
[24]
  GI50: > 100 µM
  TGI: > 100 µM
[25]
  GI50: 28.6 µM
  TGI: > 100 µM
[27]
  GI50: > 100 µM
  TGI: > 100 µM
[28]
  GI50: > 100 µM
  TGI: > 100 µM
[29]
  GI50: 16 µM
  TGI: 96.3 µM
[30]
  GI50: > 100 µM
  TGI: > 100 µM
[31]
  GI50: > 100 µM
  TGI: > 100 µM
[58]
  GI50: 38.2 µM
  TGI: > 100 µM
[32]
  GI50: > 100 µM
  TGI: > 100 µM
[33]
  GI50: > 100 µM
  TGI: > 100 µM
[34]
  GI50: 32.8 µM
  TGI: > 100 µM
[35]
  GI50: > 100 µM
  TGI: > 100 µM
[36]
  GI50: > 100 µM
  TGI: > 100 µM
[37]
  GI50: > 100 µM
  TGI: > 100 µM
[38]
  GI50: > 100 µM
  TGI: > 100 µM
[39]
  GI50: > 100 µM
  TGI: > 100 µM
[40]
  GI50: 74 µM
  TGI: > 100 µM
[41]
  GI50: 51.5 µM
  TGI: > 100 µM
[42]
  GI50: 62.4 µM
  TGI: > 100 µM
[43]
  GI50: > 100 µM
  TGI: > 100 µM
[44]
  GI50: 29.2 µM
  TGI: > 100 µM
[45]
  GI50: 78.3 µM
  TGI: > 100 µM
[46]
  GI50: > 100 µM
  TGI: > 100 µM
[47]
  GI50: 43.2 µM
  TGI: > 100 µM
[48]
  GI50: 86.3 µM
  TGI: > 100 µM
[49]
  GI50: > 100 µM
  TGI: > 100 µM
[50]
  GI50: 14.5 µM
  TGI: > 100 µM
[51]
  GI50: 64.1 µM
  TGI: > 100 µM
[52]
  GI50: 53.5 µM
  TGI: > 100 µM
[53]
  GI50: 57.9 µM
  TGI: > 100 µM
[54]
  GI50: 67.2 µM
  TGI: > 100 µM
[55]
  GI50: > 100 µM
  TGI: > 100 µM
[56]
  GI50: 56.4 µM
  TGI: > 100 µM
[57]
  GI50: > 100 µM
  TGI: > 100 µM
